Measured values taken from US9340590B2 (priority 2011, dated 2016).
pIC50: −log10 of the molar value. Positions of bridges follow the written chain, without caps; N, C: chain ends. Non-standard residues stand in square brackets, D forms with d. Residues, ends and D or L forms follow the SMILES beside them. Groups on a side chain read outwards from the residue. *: point of attachment. Pent4ynoyl = C#CCCC(=O)*; Pra = C#CC[C@H](N)C(=O)O; Abu = CC[C@H](N)C(=O)O

Experiments:
Assay in all cases: cell-based
hNav1.7 = hNav1.7 (Homo sapiens, UniProt Q15858); type: cell-based; settings: IonWorks Quattro, use-dependent block, hNav1.7; read-out: IWQ Use Nav1.7
hNav1.5 = hNav1.5 (Homo sapiens, UniProt Q14524); settings: IonWorks Quattro, use-dependent block, hNav1.5; read-out: IWQ Use Nav1.5
hNav1.3 = hNav1.3 (Homo sapiens, UniProt Q9NY46); settings: IonWorks Quattro, use-dependent block, hNav1.3; read-out: IWQ Use Nav1.3
hNav1.3, sequence (Q9NY46 whole entry, looked up): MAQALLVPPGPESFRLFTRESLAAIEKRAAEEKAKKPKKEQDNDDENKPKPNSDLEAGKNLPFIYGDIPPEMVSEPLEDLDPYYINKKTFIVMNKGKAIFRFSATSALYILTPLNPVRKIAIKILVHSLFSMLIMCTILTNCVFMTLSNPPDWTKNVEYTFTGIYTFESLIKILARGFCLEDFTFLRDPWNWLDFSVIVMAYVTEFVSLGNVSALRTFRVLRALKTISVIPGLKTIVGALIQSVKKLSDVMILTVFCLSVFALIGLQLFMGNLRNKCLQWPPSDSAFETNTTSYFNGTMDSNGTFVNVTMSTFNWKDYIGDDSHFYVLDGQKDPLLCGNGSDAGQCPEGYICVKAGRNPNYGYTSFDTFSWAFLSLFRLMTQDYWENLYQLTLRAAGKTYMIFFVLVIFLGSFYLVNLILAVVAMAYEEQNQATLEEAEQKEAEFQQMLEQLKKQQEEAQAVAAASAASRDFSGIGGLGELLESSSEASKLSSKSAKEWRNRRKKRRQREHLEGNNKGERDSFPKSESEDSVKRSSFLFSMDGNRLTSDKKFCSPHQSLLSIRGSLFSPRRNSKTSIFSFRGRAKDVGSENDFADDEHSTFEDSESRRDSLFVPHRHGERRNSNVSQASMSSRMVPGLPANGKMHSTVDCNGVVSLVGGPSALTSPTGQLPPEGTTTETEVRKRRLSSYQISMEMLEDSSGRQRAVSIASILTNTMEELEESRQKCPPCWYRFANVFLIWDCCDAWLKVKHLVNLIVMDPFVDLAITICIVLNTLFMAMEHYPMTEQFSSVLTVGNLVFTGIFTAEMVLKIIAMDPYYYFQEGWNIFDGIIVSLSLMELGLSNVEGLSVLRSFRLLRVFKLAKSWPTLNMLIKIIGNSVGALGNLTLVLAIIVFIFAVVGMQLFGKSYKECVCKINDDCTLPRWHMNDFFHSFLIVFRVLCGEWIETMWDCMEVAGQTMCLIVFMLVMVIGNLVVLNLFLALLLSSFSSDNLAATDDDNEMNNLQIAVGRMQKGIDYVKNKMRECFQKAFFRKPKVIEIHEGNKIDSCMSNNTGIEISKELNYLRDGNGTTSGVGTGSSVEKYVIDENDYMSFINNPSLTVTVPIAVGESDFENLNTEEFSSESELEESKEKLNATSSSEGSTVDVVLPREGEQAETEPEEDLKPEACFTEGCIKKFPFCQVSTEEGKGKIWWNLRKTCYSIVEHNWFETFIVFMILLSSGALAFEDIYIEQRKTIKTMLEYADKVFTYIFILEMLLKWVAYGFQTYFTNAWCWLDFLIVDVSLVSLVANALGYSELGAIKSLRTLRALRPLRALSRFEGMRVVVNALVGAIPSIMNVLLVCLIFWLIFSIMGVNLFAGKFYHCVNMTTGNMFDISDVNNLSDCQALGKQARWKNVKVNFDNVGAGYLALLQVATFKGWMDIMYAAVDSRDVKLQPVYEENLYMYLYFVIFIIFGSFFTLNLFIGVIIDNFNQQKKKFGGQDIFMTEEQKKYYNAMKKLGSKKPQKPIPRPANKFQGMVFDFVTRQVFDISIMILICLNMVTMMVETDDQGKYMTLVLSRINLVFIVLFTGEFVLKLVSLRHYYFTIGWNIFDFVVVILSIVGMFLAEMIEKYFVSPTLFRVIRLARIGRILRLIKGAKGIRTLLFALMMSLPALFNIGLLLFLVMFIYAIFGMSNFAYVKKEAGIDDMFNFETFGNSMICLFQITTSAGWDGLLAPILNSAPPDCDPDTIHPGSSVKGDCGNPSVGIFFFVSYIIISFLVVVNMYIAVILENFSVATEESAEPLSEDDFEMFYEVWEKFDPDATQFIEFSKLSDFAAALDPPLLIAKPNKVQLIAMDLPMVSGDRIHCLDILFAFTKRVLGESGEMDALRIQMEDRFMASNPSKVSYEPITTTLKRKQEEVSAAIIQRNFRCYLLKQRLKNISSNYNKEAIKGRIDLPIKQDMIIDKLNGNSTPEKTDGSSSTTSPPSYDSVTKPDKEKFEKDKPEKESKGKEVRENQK

hNav1.7, sequence (Q15858 whole entry, looked up): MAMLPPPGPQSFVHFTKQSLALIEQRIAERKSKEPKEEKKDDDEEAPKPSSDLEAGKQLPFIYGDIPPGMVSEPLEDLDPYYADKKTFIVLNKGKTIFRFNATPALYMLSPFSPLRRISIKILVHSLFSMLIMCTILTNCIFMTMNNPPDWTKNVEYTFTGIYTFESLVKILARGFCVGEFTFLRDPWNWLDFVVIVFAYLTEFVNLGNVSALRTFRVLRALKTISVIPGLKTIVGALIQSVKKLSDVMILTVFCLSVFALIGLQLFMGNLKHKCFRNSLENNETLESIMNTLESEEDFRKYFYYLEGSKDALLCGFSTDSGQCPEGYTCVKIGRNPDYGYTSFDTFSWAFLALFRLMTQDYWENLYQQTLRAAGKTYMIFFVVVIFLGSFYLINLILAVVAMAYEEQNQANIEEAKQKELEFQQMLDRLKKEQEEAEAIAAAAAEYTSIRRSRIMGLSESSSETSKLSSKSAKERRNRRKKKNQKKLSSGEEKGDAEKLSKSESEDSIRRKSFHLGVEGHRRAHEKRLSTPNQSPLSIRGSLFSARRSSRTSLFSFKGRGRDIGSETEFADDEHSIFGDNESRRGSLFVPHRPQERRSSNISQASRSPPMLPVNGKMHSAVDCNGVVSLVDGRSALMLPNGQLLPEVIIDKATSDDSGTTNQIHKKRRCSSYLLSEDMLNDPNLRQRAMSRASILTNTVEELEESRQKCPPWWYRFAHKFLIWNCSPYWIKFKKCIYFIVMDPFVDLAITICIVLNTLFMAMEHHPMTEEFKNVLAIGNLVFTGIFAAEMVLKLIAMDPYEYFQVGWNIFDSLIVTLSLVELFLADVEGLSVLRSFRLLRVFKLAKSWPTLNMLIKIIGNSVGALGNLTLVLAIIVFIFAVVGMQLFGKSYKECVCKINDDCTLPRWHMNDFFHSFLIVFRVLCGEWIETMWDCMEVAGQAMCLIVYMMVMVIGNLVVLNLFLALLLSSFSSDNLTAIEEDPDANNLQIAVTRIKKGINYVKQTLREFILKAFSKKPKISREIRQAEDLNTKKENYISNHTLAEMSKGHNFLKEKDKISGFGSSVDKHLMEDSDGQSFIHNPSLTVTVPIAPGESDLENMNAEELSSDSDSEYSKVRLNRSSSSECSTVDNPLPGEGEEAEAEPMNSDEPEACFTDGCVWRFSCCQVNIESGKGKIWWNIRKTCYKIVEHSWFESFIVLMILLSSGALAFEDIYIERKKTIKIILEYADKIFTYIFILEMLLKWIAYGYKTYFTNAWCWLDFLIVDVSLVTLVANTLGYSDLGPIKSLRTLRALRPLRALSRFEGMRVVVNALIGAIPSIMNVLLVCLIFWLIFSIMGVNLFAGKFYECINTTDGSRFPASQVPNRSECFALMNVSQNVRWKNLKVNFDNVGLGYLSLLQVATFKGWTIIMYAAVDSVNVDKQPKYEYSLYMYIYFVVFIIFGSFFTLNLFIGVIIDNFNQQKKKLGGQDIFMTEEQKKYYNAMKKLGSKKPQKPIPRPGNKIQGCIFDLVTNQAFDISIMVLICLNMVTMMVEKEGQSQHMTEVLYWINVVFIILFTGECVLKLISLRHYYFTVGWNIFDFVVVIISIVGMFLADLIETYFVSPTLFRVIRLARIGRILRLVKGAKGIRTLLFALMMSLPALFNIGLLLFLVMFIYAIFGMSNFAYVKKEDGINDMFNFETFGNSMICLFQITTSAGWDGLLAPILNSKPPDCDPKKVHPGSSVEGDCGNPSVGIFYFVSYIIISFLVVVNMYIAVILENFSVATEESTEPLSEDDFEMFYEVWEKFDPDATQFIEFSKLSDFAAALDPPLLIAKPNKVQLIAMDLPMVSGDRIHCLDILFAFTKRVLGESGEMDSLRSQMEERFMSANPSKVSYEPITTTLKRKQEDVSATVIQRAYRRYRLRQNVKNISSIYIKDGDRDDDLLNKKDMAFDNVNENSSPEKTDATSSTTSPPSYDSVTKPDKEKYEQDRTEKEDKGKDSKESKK

`C#CC[C@@H]1NC(=O)[C@H](CC(=O)O)NC(=O)[C@@H]2CCCN2C(=O)[C@H]([C@@H](C)CC)NC(=O)[C@@H]2CSSC[C@@H]3NC(=O)[C@H](C(C)C)NC(=O)[C@H](CC(C)C)NC(=O)[C@H](CC(N)=O)NC(=O)[C@@H]4CCCN4C(=O)[C@H](CCCNC(=N)N)NC(=O)[C@H](CSSC[C@H](NC(=O)[C@@H](N)CC(=O)O)C(=O)N[C@@H](CC(C)C)C(=O)NCC(=O)N[C@@H](C)C(=O)N[C@@H](Cc4ccccc4)C(=O)N[C@@H](CCCNC(=N)N)C(=O)N[C@@H](CCCCN)C(=O)N2)NC(=O)[C@H](CSSC[C@@H](C(=O)N[C@@H](CCCCN)C(=O)N[C@@H](Cc2ccc(O)cc2)C(=O)N[C@H](C(=O)N[C@@H](Cc2ccccc2)C(N)=O)C(C)C)NC(=O)[C@H](Cc2c[nH]c4ccccc24)NC(=O)[C@H](CCCCN)NC(=O)[C@H](Cc2c[nH]cn2)NC(=O)[C@H]([C@@H](C)O)NC(=O)[C@H](CCCNC(=N)N)NC(=O)[C@H](CO)NC3=O)NC(=O)[C@H](CCCCN)NC(=O)[C@H](CC(=O)O)NC1=O` [compound 793] (H-DCLGAFRKCIPD[Pra]DKCCRPNLVCSRTHKWCKYVF-NH2; disulfide 2-17, 9-23, 16-30) was tested, and the pIC50 (hNav1.7) was 6.28, the pIC50 (hNav1.5) was 4.54 and the pIC50 (hNav1.3) was 6.33.
`C#CC[C@H](NC(C)=O)C(=O)NCCCC[C@@H]1NC(=O)[C@H](CC(=O)O)NC(=O)[C@@H]2CCCN2C(=O)[C@H]([C@@H](C)CC)NC(=O)[C@@H]2CSSC[C@@H]3NC(=O)[C@H](C(C)C)NC(=O)[C@H](CC(C)C)NC(=O)[C@H](CC(N)=O)NC(=O)[C@@H]4CCCN4C(=O)[C@H](CCCNC(=N)N)NC(=O)[C@H](CSSC[C@H](NC(=O)[C@@H](N)CC(=O)O)C(=O)N[C@@H](CC(C)C)C(=O)NCC(=O)N[C@@H](C)C(=O)N[C@@H](Cc4ccccc4)C(=O)N[C@@H](CCCNC(=N)N)C(=O)N[C@@H](CCCCN)C(=O)N2)NC(=O)[C@H](CSSC[C@@H](C(=O)N[C@@H](CCCCN)C(=O)N[C@@H](Cc2ccc(O)cc2)C(=O)N[C@H](C(=O)N[C@@H](Cc2ccccc2)C(N)=O)C(C)C)NC(=O)[C@H](Cc2c[nH]c4ccccc24)NC(=O)[C@H](CCCCN)NC(=O)[C@H](Cc2c[nH]cn2)NC(=O)[C@H]([C@@H](C)O)NC(=O)[C@H](CCCNC(=N)N)NC(=O)[C@H](CO)NC3=O)NC(=O)[C@H](CCCCN)NC(=O)[C@H](CC(=O)O)NC1=O` [compound 794] (H-DCLGAFRKCIPDK([Pra-Ac])DKCCRPNLVCSRTHKWCKYVF-NH2; disulfide 2-17, 9-23, 16-30) was tested, and the pIC50 (hNav1.7) was 6.05, the pIC50 (hNav1.5) was 4.42 and the pIC50 (hNav1.3) was 6.15.
`C#CC[C@@H]1NC(=O)[C@H](CC(=O)O)NC(=O)[C@@H]2CCCN2C(=O)[C@H]([C@@H](C)CC)NC(=O)[C@@H]2CSSC[C@@H]3NC(=O)[C@H](C(C)C)NC(=O)[C@H](CC(C)C)NC(=O)[C@H](CC(N)=O)NC(=O)[C@@H]4CCCN4C(=O)[C@H](CCCNC(=N)N)NC(=O)[C@H](CSSC[C@H](NC(=O)[C@@H](N)CC(=O)O)C(=O)N[C@@H](CC(C)C)C(=O)NCC(=O)N[C@@H](C)C(=O)N[C@@H](CC(C)C)C(=O)N[C@@H](CCCNC(=N)N)C(=O)N[C@@H](CCCCN)C(=O)N2)NC(=O)[C@H](CSSC[C@@H](C(=O)N[C@@H](CCCCN)C(=O)N[C@@H](Cc2ccc(O)cc2)C(=O)N[C@H](C(=O)N[C@@H](Cc2ccccc2)C(N)=O)C(C)C)NC(=O)[C@H](Cc2c[nH]c4ccccc24)NC(=O)[C@H](CCCNC(=N)N)NC(=O)[C@H](Cc2c[nH]cn2)NC(=O)[C@H](CC(C)C)NC(=O)[C@H](CCCNC(=N)N)NC(=O)[C@H](CO)NC3=O)NC(=O)[C@H](CCCCN)NC(=O)[C@H](CC(=O)O)NC1=O` [compound 796] (H-DCLGALRKCIPD[Pra]DKCCRPNLVCSRLHRWCKYVF-NH2; disulfide 2-17, 9-23, 16-30) gave a pIC50 (hNav1.7) of 6.66, a pIC50 (hNav1.5) of 4.44 and a pIC50 (hNav1.3) of 6.32.
`C#CC[C@@H]1NC(=O)[C@H](CC(=O)O)NC(=O)[C@@H]2CCCN2C(=O)[C@H]([C@@H](C)CC)NC(=O)[C@@H]2CSSC[C@@H]3NC(=O)[C@H](C(C)C)NC(=O)[C@H](CC(C)C)NC(=O)[C@H](CC(N)=O)NC(=O)[C@@H]4CCCN4C(=O)[C@H](CCCNC(=N)N)NC(=O)[C@H](CSSC[C@H](NC(=O)[C@@H](N)CC(=O)O)C(=O)N[C@@H](CC(C)C)C(=O)NCC(=O)N[C@@H](CC)C(=O)N[C@@H](CC(C)C)C(=O)N[C@@H](CCCNC(=N)N)C(=O)N[C@@H](CCCCN)C(=O)N2)NC(=O)[C@H](CSSC[C@@H](C(=O)N[C@@H](CCCCN)C(=O)N[C@@H](Cc2ccc(O)cc2)C(=O)N[C@H](C(=O)N[C@@H](Cc2ccccc2)C(N)=O)C(C)C)NC(=O)[C@H](Cc2c[nH]c4ccccc24)NC(=O)[C@H](CCCCN)NC(=O)[C@H](Cc2c[nH]cn2)NC(=O)[C@H]([C@@H](C)O)NC(=O)[C@H](CCCNC(=N)N)NC(=O)[C@H](CO)NC3=O)NC(=O)[C@H](CCCCN)NC(=O)[C@H](CC(=O)O)NC1=O` [compound 797] (H-DCLG[Abu]LRKCIPD[Pra]DKCCRPNLVCSRTHKWCKYVF-NH2; disulfide 2-17, 9-23, 16-30) was tested, and the pIC50 (hNav1.7) was 6.28, the pIC50 (hNav1.5) was 4.47 and the pIC50 (hNav1.3) was 6.03.
Compound `C#CC[C@@H]1NC(=O)[C@H](CC(=O)O)NC(=O)[C@@H]2CCCN2C(=O)[C@H](CCC(=O)O)NC(=O)[C@@H]2CSSC[C@@H]3NC(=O)[C@H](C(C)C)NC(=O)[C@H](CC(C)C)NC(=O)[C@H](CC(N)=O)NC(=O)[C@@H]4CCCN4C(=O)[C@H](CCCNC(=N)N)NC(=O)[C@H](CSSC[C@H](NC(=O)[C@@H](N)CC(=O)O)C(=O)N[C@@H](CC(C)C)C(=O)NCC(=O)N[C@@H](C)C(=O)N[C@@H](Cc4ccccc4)C(=O)N[C@@H](CCCNC(=N)N)C(=O)N[C@@H](CCCCN)C(=O)N2)NC(=O)[C@H](CSSC[C@@H](C(=O)N[C@@H](CCCCN)C(=O)N[C@@H](Cc2ccc(O)cc2)C(=O)N[C@H](C(=O)N[C@@H](Cc2ccccc2)C(N)=O)C(C)C)NC(=O)[C@H](Cc2c[nH]c4ccccc24)NC(=O)[C@H](CCCNC(=N)N)NC(=O)[C@H](Cc2c[nH]cn2)NC(=O)[C@H](CC(C)C)NC(=O)[C@H](CCCNC(=N)N)NC(=O)[C@H](CO)NC3=O)NC(=O)[C@H](CCCCN)NC(=O)[C@H](CC(=O)O)NC1=O` [compound 798] (H-DCLGAFRKCEPD[Pra]DKCCRPNLVCSRLHRWCKYVF-NH2; disulfide 2-17, 9-23, 16-30) has a pIC50 (hNav1.7) of 6.27, a pIC50 (hNav1.5) of 4.49 and a pIC50 (hNav1.3) of 6.25.
Compound `C#CC[C@H](NC(C)=O)C(=O)NCCCC[C@@H]1NC(=O)[C@H](CC(=O)O)NC(=O)[C@@H]2CCCN2C(=O)[C@H]([C@@H](C)CC)NC(=O)[C@@H]2CSSC[C@@H]3NC(=O)[C@H](C(C)C)NC(=O)[C@H](CC(C)C)NC(=O)[C@H](CC(N)=O)NC(=O)[C@@H]4CCCN4C(=O)[C@H](CCCNC(=N)N)NC(=O)[C@H](CSSC[C@H](NC(=O)[C@@H](N)CC(=O)O)C(=O)N[C@@H](CC(C)C)C(=O)NCC(=O)N[C@@H](CC)C(=O)N[C@@H](CC(C)C)C(=O)N[C@@H](CCCNC(=N)N)C(=O)N[C@@H](CCCCN)C(=O)N2)NC(=O)[C@H](CSSC[C@@H](C(=O)N[C@@H](CCCCN)C(=O)N[C@@H](Cc2ccc(O)cc2)C(=O)N[C@H](C(=O)N[C@@H](Cc2ccccc2)C(N)=O)C(C)C)NC(=O)[C@H](Cc2c[nH]c4ccccc24)NC(=O)[C@H](CCCCN)NC(=O)[C@H](Cc2c[nH]cn2)NC(=O)[C@H]([C@@H](C)O)NC(=O)[C@H](CCCNC(=N)N)NC(=O)[C@H](CO)NC3=O)NC(=O)[C@H](CCCCN)NC(=O)[C@H](CC(=O)O)NC1=O` [compound 799] (H-DCLG[Abu]LRKCIPDK([Pra-Ac])DKCCRPNLVCSRTHKWCKYVF-NH2; disulfide 2-17, 9-23, 16-30) has a pIC50 (hNav1.7) of 6.12, a pIC50 (hNav1.5) of 4.55 and a pIC50 (hNav1.3) of 6.15.
`C#CCCC(=O)NCCCC[C@@H]1NC(=O)[C@H](CC(=O)O)NC(=O)[C@@H]2CCCN2C(=O)[C@H]([C@@H](C)CC)NC(=O)[C@@H]2CSSC[C@@H]3NC(=O)[C@H](C(C)C)NC(=O)[C@H](CC(C)C)NC(=O)[C@H](CC(N)=O)NC(=O)[C@@H]4CCCN4C(=O)[C@H](CCCNC(=N)N)NC(=O)[C@H](CSSC[C@H](NC(=O)[C@@H](N)CC(=O)O)C(=O)N[C@@H](CC(C)C)C(=O)NCC(=O)N[C@@H](CC)C(=O)N[C@@H](CC(C)C)C(=O)N[C@@H](CCCNC(=N)N)C(=O)N[C@@H](CCCCN)C(=O)N2)NC(=O)[C@H](CSSC[C@@H](C(=O)N[C@@H](CCCCN)C(=O)N[C@@H](Cc2ccc(O)cc2)C(=O)N[C@H](C(=O)N[C@@H](Cc2ccccc2)C(N)=O)C(C)C)NC(=O)[C@H](Cc2c[nH]c4ccccc24)NC(=O)[C@H](CCCNC(=N)N)NC(=O)[C@H](Cc2c[nH]cn2)NC(=O)[C@H]([C@@H](C)O)NC(=O)[C@H](CCCNC(=N)N)NC(=O)[C@H](CO)NC3=O)NC(=O)[C@H](CCCCN)NC(=O)[C@H](CC(=O)O)NC1=O` [compound 801] (H-DCLG[Abu]LRKCIPDK(Pent4ynoyl)DKCCRPNLVCSRTHRWCKYVF-NH2; disulfide 2-17, 9-23, 16-30) was tested, and the pIC50 (hNav1.7) was 6.26, the pIC50 (hNav1.5) was 4.40 and the pIC50 (hNav1.3) was 6.09.
`C#CC[C@@H]1NC(=O)[C@@H]2CCCN2C(=O)[C@H]([C@@H](C)CC)NC(=O)[C@@H]2CSSC[C@@H]3NC(=O)[C@H](C(C)C)NC(=O)[C@H](CC(C)C)NC(=O)[C@H](CC(N)=O)NC(=O)[C@@H]4CCCN4C(=O)[C@H](CCCNC(=N)N)NC(=O)[C@H](CSSC[C@H](NC(=O)[C@@H](N)CC(=O)O)C(=O)N[C@@H](CC(C)C)C(=O)NCC(=O)N[C@@H](C)C(=O)N[C@@H](CC(C)C)C(=O)N[C@@H](CCCNC(=N)N)C(=O)N[C@@H](CCCCN)C(=O)N2)NC(=O)[C@H](CSSC[C@@H](C(=O)N[C@@H](CCCCN)C(=O)N[C@@H](Cc2ccc(O)cc2)C(=O)N[C@H](C(=O)N[C@@H](Cc2ccccc2)C(N)=O)C(C)C)NC(=O)[C@H](Cc2c[nH]c4ccccc24)NC(=O)[C@H](CCCNC(=N)N)NC(=O)[C@H](Cc2c[nH]cn2)NC(=O)[C@H](CC(C)C)NC(=O)[C@H](CCCNC(=N)N)NC(=O)[C@H](CO)NC3=O)NC(=O)[C@H](CCCCN)NC(=O)[C@H](CC(=O)O)NC(=O)[C@H](CC(N)=O)NC1=O` [compound 802] was tested, and the pIC50 (hNav1.7) was 6.59, the pIC50 (hNav1.5) was < 4.30 and the pIC50 (hNav1.3) was 6.27.
